Results: the supplement of paper PMC6045584
± gives the standard deviation of the averaged measurements.

How the values were obtained:
[1] = compound: COc1ccc(-c2cc3c(C)nc(N)nc3n([C@H]3CC[C@H](OCCO)CC3)c2=O)cn1; experiment: surviving fraction relative to DMSO-only wells; higher = less growth inhibition; details: exposure time: 5 days
Procedure, shortened: (§1)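 Surviving fraction was calculated by normalising CellTiter-Glo luminescence to the median of DMSO-only wells. Tumour cell lines in log phase were seeded in 384-well plates at 250–500 cells per well, and 24 hours later were exposed continuously for five days to inhibitors at 0.5, 1, 5, 10, 50, 100, 500 and 1000 nM.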

BLEOMYCIN = compound: Cc1c(N)nc([C@H](CC(N)=O)NC[C@H](N)C(N)=O)nc1C(=O)N[C@H](C(=O)N[C@H](C)[C@@H](O)[C@H](C)C(=O)N[C@H](C(=O)NCCc1nc(-c2nc(C(=O)NCCC[S+](C)C)cs2)cs1)[C@@H](C)O)[C@@H](OC1OC(CO)C(O)C(O)C1OC1OC(CO)C(O)C(OC(N)=O)C1O)c1cnc[nH]1 [BLEOMYCIN]; experiment: as above; details: exposure time: 5 days
Procedure, shortened: as §1

| Test System | surviving fraction ([1]; 0.5 nM) | surviving fraction ([1]; 1 nM) | surviving fraction ([1]; 5 nM) | surviving fraction ([1]; 10 nM) | surviving fraction ([1]; 50 nM) | surviving fraction ([1]; 100 nM) | surviving fraction ([1]; 500 nM) | surviving fraction ([1]; 1000 nM) | surviving fraction (BLEOMYCIN; 0.5 nM) | surviving fraction (BLEOMYCIN; 1 nM) | surviving fraction (BLEOMYCIN; 5 nM) | surviving fraction (BLEOMYCIN; 10 nM) | surviving fraction (BLEOMYCIN; 50 nM) | surviving fraction (BLEOMYCIN; 100 nM) | surviving fraction (BLEOMYCIN; 500 nM) | surviving fraction (BLEOMYCIN; 1000 nM) |
| --- | --- | --- | --- | --- | --- | --- | --- | --- | --- | --- | --- | --- | --- | --- | --- | --- |
| G292 BONE | 0.951 ± 0.026 | 0.971 ± 0.037 | 0.853 ± 0.042 | 0.78 ± 0.011 | 0.422 ± 0.027 | 0.305 ± 0.013 | 0.124 ± 0.003 | 0.0955 ± 0.001 | 0.912 ± 0.048 | 0.887 ± 0.0095 | 0.801 ± 0.052 | 0.741 ± 0.067 | 0.553 ± 0.027 | 0.474 ± 0.02 | 0.315 ± 0.017 | 0.276 ± 0.0065 |
| HCC38 BREAST | 0.974 ± 0.14 | 1.13 ± 0.17 | 1.21 ± 0.02 | 1.08 ± 0.069 | 1.14 ± 0.14 | 1.01 ± 0.34 | 0.409 ± 0.083 | 0.223 ± 0.046 | 0.725 ± 0.19 | 0.725 ± 0.085 | 0.793 ± 0.22 | 0.776 ± 0.18 | 0.91 ± 0.23 | 0.781 ± 0.11 | 0.697 ± 0.14 | 0.498 ± 0.046 |
| HCC70 BREAST | 1.01 ± 0.091 | 1.02 ± 0.092 | 1.06 ± 0.097 | 0.98 ± 0.026 | 0.623 ± 0.051 | 0.346 ± 0.011 | 0.111 ± 0.036 | 0.056 ± 0.0061 | 0.965 ± 0.055 | 1 ± 0.086 | 0.935 ± 0.13 | 0.981 ± 0.026 | 0.835 ± 0.052 | 0.746 ± 0.052 | 0.606 ± 0.097 | 0.47 ± 0.076 |
| HMLE3 BREAST | 0.914 ± 0.04 | 0.918 ± 0.061 | 0.858 ± 0.12 | 0.83 ± 0.035 | 0.611 ± 0.043 | 0.446 ± 0.024 | 0.121 ± 0.01 | 0.0777 ± 0.0064 | 0.873 ± 0.098 | 0.892 ± 0.032 | 0.858 ± 0.085 | 0.907 ± 0.046 | 0.933 ± 0.044 | 0.967 ± 0.055 | 0.956 ± 0.042 | 0.864 ± 0.064 |
| HMT3552 BREAST | 0.941 | 0.913 | 0.883 | 0.813 | 0.535 | 0.279 | 0.09 | 0.077 | 0.873 | 0.943 | 0.9 | 0.807 | 0.55 | 0.299 | 0.15 | 0.182 |
| HS578T BREAST | 0.864 ± 0.19 | 0.946 ± 0.1 | 0.811 ± 0.047 | 0.759 ± 0.12 | 0.547 ± 0.048 | 0.403 ± 0.028 | 0.17 ± 0.008 | 0.111 ± 0.004 | 0.759 ± 0.12 | 0.774 ± 0.11 | 0.842 ± 0.043 | 0.783 ± 0.071 | 0.746 ± 0.074 | 0.596 ± 0.1 | 0.364 ± 0.021 | 0.359 ± 0.033 |
